The values that follow come from ChEMBL document CHEMBL1124159, “Synthesis and structure-activity relationships of 2-sulfonamido-1,3,4,6,7,11b alpha-hexahydro-2H-benzo[a]quinolizines as alpha 2-adrenoceptor antagonists” (J Med Chem, 1988).

Test [1] has as its target T1, Adrenergic receptor alpha-2 (Rattus norvegicus, UniProt P22086+P19328+P22909).
T1 sequence (P22086 whole entry): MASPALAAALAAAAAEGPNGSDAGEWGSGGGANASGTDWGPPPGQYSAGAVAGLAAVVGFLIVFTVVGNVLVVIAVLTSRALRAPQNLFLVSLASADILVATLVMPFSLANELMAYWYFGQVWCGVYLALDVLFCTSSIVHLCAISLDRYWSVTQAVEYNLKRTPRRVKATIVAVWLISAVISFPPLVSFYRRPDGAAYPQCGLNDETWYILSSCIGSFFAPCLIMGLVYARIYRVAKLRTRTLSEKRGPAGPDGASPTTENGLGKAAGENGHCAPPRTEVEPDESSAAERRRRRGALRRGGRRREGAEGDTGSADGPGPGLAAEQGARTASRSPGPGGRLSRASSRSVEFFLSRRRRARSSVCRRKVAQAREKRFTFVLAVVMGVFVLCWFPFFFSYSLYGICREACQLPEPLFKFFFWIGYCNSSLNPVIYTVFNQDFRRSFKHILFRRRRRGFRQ
T1 sequence (P19328 whole entry): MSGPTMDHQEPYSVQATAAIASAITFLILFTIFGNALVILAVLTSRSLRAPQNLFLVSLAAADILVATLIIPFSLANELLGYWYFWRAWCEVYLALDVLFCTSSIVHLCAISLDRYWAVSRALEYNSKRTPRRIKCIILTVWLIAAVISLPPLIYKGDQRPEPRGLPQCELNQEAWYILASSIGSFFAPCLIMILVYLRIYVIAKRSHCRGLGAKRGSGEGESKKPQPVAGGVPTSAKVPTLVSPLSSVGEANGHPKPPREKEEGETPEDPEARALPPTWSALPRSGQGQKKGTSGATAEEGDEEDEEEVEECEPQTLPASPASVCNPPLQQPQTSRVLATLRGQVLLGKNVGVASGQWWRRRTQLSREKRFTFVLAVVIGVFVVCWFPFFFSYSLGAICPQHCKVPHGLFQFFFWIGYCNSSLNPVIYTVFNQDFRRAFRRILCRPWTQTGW
T1 sequence (P22909 whole entry): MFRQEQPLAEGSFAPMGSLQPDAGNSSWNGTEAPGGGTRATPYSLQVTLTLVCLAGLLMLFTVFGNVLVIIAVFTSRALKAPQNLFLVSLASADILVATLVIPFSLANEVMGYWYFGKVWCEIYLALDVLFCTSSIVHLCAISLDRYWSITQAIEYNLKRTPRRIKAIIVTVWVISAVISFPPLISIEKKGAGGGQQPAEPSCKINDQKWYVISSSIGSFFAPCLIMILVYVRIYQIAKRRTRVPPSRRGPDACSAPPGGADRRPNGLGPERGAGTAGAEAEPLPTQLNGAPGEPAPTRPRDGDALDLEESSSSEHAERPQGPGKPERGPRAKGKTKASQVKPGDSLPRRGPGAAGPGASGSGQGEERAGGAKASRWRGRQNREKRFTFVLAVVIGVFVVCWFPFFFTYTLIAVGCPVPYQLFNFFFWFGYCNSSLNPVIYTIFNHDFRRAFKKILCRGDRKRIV
In words: Antagonistic activity against alpha-2 adrenergic receptor in rat vas deferens. The class given is functional, tissue-based.

Test [2] concerns the target T2, Adrenergic receptor alpha-1 (Rattus norvegicus, UniProt P15823+P23944+P43140).
T2 sequence (P15823 whole entry): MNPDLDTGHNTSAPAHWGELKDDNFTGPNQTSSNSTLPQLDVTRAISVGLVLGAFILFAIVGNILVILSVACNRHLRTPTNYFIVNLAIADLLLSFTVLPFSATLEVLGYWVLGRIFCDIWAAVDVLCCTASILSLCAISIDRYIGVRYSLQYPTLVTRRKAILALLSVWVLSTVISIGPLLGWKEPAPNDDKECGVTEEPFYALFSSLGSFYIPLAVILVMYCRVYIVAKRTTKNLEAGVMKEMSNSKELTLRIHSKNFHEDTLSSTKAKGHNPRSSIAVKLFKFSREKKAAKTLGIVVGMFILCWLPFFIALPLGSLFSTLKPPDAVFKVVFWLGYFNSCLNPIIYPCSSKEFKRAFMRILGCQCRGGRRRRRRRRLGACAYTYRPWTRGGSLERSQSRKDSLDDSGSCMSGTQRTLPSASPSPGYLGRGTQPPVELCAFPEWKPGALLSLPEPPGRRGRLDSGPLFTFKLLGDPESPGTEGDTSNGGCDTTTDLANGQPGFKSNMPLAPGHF
T2 sequence (P23944 whole entry): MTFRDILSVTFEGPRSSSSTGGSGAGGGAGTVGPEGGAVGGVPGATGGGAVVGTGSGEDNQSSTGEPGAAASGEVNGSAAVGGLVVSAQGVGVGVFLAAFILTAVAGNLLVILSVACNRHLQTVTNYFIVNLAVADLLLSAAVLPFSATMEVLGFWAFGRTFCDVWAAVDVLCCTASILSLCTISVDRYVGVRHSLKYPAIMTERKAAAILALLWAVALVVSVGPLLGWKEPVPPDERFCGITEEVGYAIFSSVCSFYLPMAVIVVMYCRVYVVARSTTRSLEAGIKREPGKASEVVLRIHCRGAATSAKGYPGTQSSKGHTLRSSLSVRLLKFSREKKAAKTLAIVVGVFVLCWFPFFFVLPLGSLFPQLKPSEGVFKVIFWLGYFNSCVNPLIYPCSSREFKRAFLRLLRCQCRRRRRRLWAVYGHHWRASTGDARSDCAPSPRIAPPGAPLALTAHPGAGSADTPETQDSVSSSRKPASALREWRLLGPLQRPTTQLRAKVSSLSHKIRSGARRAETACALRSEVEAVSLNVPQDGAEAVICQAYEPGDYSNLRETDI
T2 sequence (P43140 whole entry): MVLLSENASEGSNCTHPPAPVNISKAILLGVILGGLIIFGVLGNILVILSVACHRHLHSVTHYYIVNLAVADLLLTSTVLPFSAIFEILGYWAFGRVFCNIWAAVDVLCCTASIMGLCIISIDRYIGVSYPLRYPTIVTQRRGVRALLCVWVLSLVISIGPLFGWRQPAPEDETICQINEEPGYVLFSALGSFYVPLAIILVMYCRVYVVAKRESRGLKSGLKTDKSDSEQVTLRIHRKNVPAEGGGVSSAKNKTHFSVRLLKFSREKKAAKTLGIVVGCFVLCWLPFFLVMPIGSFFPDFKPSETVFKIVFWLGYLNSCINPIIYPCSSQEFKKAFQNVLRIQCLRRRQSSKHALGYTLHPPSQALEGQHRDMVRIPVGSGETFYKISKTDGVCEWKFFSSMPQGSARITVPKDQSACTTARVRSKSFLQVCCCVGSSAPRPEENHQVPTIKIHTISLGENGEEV
In words: Antagonistic activity against alpha-1 adrenergic receptor in isolated rat anococcygeus muscle. The class given is functional, tissue-based.

Test [3] has as its target T2, Adrenergic receptor alpha-1. The experiment in a line: Antagonistic activity against alpha-1-adrenoceptor in isolated rat anococcygeus muscle. The class given is functional, tissue-based, Muscle tissue.
For test [4] the target is unchanged. The experiment in a line: Antagonistic activity against alpha-1 adrenergic receptor in rat anococcygeus muscle.

What is called pA2 is the negative logarithm of the molar antagonist concentration that doubles the agonist concentration needed for the same response. A high value points to higher antagonist potency. For the compound `CN([C@@H]1CCN2CCc3ccccc3[C@@H]2C1)S(=O)(=O)CCl`, the pA2 was 8.26 in test [1] and 6.61 in test [2].

Turning to `COc1ccc(S(=O)(=O)N(C)[C@@H]2CCN3CCc4ccccc4[C@@H]3C2)cc1`, the pA2 in test [1] is on record as 8.1; in test [2], 6.5.

With `CS(=O)(=O)N[C@@H]1CCN2CCc3ccccc3[C@@H]2C1`, the pA2 came to 6.27 in test [1] and 5.33 in test [3].

For `CNS(=O)(=O)N(C)[C@@H]1CCN2CCc3ccccc3[C@@H]2C1`, the results for the pA2 in test [1] and in test [2] were 7.44 and 6.19, respectively.

For the compound `CCCCS(=O)(=O)N(C)[C@@H]1CCN2CCc3ccccc3[C@@H]2C1`, the pA2 in test [1] is listed as 7.87; in test [2], 6.6.

For `CN([C@@H]1CCN2CCc3ccccc3[C@@H]2C1)S(N)(=O)=O`, the pA2 in test [1] worked out at 7.1; in test [2], 5.7.

For the compound `CC(C)CS(=O)(=O)N[C@@H]1CCN2CCc3ccccc3[C@@H]2C1`, the pA2 is 6.34 in test [1] and 6.55 in test [2].

Take `CCCS(=O)(=O)N(C)[C@H]1CCN2CCc3ccccc3[C@H]2C1`: the pA2 is given as 7.1 in test [1] and 5.8 in test [2].

As for `CCCCCS(=O)(=O)N(C)[C@@H]1CCN2CCc3ccccc3[C@@H]2C1`, the pA2 is listed as 7.74 in test [1] and 6.8 in test [2].

For the compound `CCN([C@@H]1CCN2CCc3ccccc3[C@@H]2C1)S(=O)(=O)CC(C)C`, the values for the pA2 in test [1] and in test [2] were 7.61 and 6.65, respectively.

In the case of `C=CS(=O)(=O)N(C)[C@@H]1CCN2CCc3ccccc3[C@@H]2C1`, the pA2 amounted to 7.93 in test [1] and 6.32 in test [2].

As for `CN(C)CCS(=O)(=O)N(C)[C@@H]1CCN2CCc3ccccc3[C@@H]2C1`, the pA2 turned out to be 7.26 in test [1] and 5.6 in test [2].

With `CCCS(=O)(=O)N(C)[C@@H]1CCN2CCc3ccccc3C2C1` (stereo partly drawn), the results for the pA2 in test [1] and in test [2] were 5.78 and 5.86, respectively.

For `CCCS(=O)(=O)N(C)[C@@H]1CCN2CCc3ccccc3[C@@H]2C1` (stereo in doubt), the pA2 in test [1] is 8.5; in test [4] it was 7.2.

On to `CC(C)CS(=O)(=O)N(C)[C@@H]1CCN2CCc3ccccc3[C@@H]2C1` (stereo in doubt), for which the pA2 in test [1] is 8.05; in test [4] it was 6.9.

In the case of `CN([C@@H]1CCN2CCc3ccccc3[C@@H]2C1)S(C)(=O)=O` (stereo in doubt), the pA2 in test [1] was 8.05; in test [2], 6.48.

In the case of `CN([C@@H]1CCN2CCc3ccccc3[C@@H]2C1)S(C)(=O)=O` (stereo in doubt; 6), the results for the pA2 in test [1] and in test [2] were 7.81 and 6.04, respectively.

Regarding `CCCS(=O)(=O)N(C)[C@@H]1CCN2CCc3ccccc3[C@@H]2C1` (stereo in doubt; 10), the pA2 in test [1] is 8.08; in test [2], 6.34.

Take `CC(C)CS(=O)(=O)N(C)[C@@H]1CCN2CCc3ccccc3[C@@H]2C1` (stereo in doubt; 16): the pA2 came to 8.16 in test [1] and 6.49 in test [2].
